“Also recorded” adds a separate entry of the source. Starred links: 1 amine or outer side, 2 acyl side, 3 side chain; linkers in the order of their positions; H or OH if unused. Positions of bridges follow the written chain, without caps; N, C: chain ends. Non-standard residues stand in square brackets, D forms with d. Residues, ends and D or L forms follow the SMILES beside them. Chains are numbered I, II in the order given. NH(CH2CH2O)6CH2CO = O=C(COCCOCCOCCOCCOCCOCCN[*:1])[*:2]; Dap = NC[C@H](N)C(=O)O
Key:
[1] = target: T1, extracellular domain of hTrkC (Homo sapiens, UniProt Q16288); experiment: SPR binding kinetics (Biacore T200), hTrkC; details: 1:1 binding model
T1 construct: the extracellular domain of hTrkA, hTrkC, and hTrkB
T1 sequence (Q16288 32-429 limits assumed): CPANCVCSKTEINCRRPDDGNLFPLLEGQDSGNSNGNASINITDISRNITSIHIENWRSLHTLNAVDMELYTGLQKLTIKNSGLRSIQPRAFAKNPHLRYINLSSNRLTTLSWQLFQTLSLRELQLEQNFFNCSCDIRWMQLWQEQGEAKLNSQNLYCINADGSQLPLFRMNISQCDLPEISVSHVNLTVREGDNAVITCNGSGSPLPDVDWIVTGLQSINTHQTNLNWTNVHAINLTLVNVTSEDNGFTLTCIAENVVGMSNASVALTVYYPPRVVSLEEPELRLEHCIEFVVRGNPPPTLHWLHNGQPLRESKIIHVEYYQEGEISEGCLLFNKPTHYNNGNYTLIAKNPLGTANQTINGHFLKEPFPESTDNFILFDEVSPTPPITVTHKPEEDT
Protocol: (§1) With respect to the binding kinetics (binding affinity (dissociation constant) KD) of the cyclic peptides towards the extracellular domain of hTrkA, hTrkC, and hTrkB (which will hereinafter be called “hTrkA-C proteins”, collectively) immobilized on a sensor chip via a His6-tag, quantitative measurements making use of surface plasmon resonance (SPR) were carried out to evaluate the binding intensity and selectivity of the cyclic peptide to hTrkB, compared with that to hTrkA and hTrkC.
(§2) The binding kinetics of each peptide towards the hTrkA-C proteins were determined using Biacore T200 (GE Healthcare). The buffer used was HBS-P+ (10 mM HEPES, 150 mM NaCl, and 0.05 vol% surfactant P20, pH 7.4) containing 0.1 vol% DMSO and 1 mM b-dodecyl-maltoside. 100 nM hTrkA-C proteins were immobilized on a Ni^2+ treated NTA chip in accordance with the manufacturer’s instructions (baseline response 1000 to 3000 refraction units). Peptides were injected as an analyte at a flow rate of […] and binding kinetics was modelled using a 1:1 binding model.

mouse TrkB = target: T2, mouse TrkB (Mus musculus, UniProt P15209); experiment: Western blot of phosphorylated Trk in primary mouse hippocampal neurons; format: cell-based
T2 construct: induce phosphorylation of mouse TrkB in primary mouse hippocampal neurons; endogenous in cells; host or cells: primary mouse hippocampal neurons (DIV6)
T2 sequence (P15209 32-821): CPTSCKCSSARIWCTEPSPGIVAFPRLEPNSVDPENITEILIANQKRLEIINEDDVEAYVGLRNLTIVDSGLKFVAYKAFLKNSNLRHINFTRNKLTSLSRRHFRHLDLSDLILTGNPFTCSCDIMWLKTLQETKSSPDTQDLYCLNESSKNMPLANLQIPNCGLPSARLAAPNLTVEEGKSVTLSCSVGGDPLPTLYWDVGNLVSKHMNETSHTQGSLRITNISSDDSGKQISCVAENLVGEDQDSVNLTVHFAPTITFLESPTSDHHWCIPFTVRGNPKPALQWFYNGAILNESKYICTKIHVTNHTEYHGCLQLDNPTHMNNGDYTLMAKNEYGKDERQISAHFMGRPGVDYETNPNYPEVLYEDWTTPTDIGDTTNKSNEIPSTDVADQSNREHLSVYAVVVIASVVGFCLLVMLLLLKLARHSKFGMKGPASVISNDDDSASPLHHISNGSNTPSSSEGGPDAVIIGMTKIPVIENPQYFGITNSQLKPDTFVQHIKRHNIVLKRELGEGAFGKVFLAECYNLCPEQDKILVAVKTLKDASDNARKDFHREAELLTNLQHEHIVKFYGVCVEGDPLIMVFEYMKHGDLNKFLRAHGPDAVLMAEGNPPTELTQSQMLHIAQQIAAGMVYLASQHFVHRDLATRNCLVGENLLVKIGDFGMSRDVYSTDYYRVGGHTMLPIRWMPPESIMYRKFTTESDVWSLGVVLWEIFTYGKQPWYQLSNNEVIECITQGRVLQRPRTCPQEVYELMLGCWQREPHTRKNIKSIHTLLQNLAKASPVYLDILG
Protocol: (§3) After washing with 0.1 M PBS twice, cells were lysed in a radio-immunoprecipitation assay (RIPA) buffer containing 50 mM Tris-HCI (pH 7.4), 150 mM NaCl, 2 mM EDTA, 1% Nonidet P-40, 0.5% Na-deoxycholate, 0.1% SDS, 50 mM NaF, 0.2 mM Na3VO4, 10 µg/mL aprotinin, 10 µg/mL leupeptin, and 1 mM phenylmethylsulfonyl fluoride on ice for 30 minutes. After ultrasonic treatment and centrifugation at 20,000 ×g for 30 minutes, the supernatant was subjected to SDS-PAGE. Protein amount was quantified using Bicinchoninic Acid Kit (BCA-1, Sigma).
The cell lysate (protein amount: 20 µg in P-TrkB, 10 µg in TrkB, and 5 µg in Akt and Erk) was separated using 8% polyacrylamide gel and transferred to a polyvinylidene difluoride membrane (Merck Millipore, Massachusetts, USA). The resulting membrane was blocked for 1 hour with a blocking buffer (5% bovine serum albumin (BSA) tris-buffered physiological saline (TBST) containing 0.05% tween-20), followed by incubation overnight at 4° C. in a blocking buffer containing a primary antibody (rabbit anti-TrkB antibody, 1:1,000 dilution, Cat#4603; rabbit anti-phosphorylated Trk antibody, 1:1,000 dilution, Cat#9141; mouse anti-pan-Akt antibody, 1:2,000 dilution, Cat#2920; rabbit anti-phosphorylated Akt (S473) antibody, 1:2,000 dilution, Cat#4060; rabbit anti-Erk½ antibody, 1:2,000 dilution, Cat#4695; mouse anti-phosphorylated Erk½ antibody, 1:2,000 dilution, Cat#9106 (Cell Signaling Technology)). After washing with TBST for 10 minutes four times, the membrane was incubated with a secondary antibody (peroxidase-conjugated goat anti-rabbit IgG antibody, 1:10,000 dilution, Cat#111-035-003 (Jackson Immuno Research); peroxidase-conjugated sheep anti-mouse IgG antibody, 1:10,000 dilution, Cat#NA9310 (GE Healthcare)) for one hour at room temperature.
Finally, after the resulting membrane was washed with TBST, an immune-positive bands were detected by a chemiluminescence method using a Luminata Crescendo HPR substrate (Merck Millipore). The relative phosphorylation level of each kinase was calculated as a ratio of phosphorylated kinase/all kinases. […]

Akt = experiment: Western blot of phosphorylated Akt (S473) in primary hippocampal neurons; format: cell-based, mouse; details: 1 nM, 15 minutes, primary hippocampal neurons (DIV6); p<0.01 vs DMSO
Protocol: as §3
(§4) The cell lysate (protein amount: 20 µg in P-TrkB, 10 µg in TrkB, and 5 µg in Akt and Erk) was separated using 8% polyacrylamide gel and transferred to a polyvinylidene difluoride membrane (Merck Millipore, Massachusetts, USA). […]
(§5) Finally, after the resulting membrane was washed with TBST, an immune-positive bands were detected by a chemiluminescence method using a Luminata Crescendo HPR substrate (Merck Millipore). The relative phosphorylation level of each kinase was calculated as a ratio of phosphorylated kinase/all kinases.

Erk½ = experiment: Western blot of phosphorylated Erk½ in primary hippocampal neurons; format: cell-based, mouse; details: 1 nM, 15 minutes, primary hippocampal neurons (DIV6); p<0.01 vs DMSO
Protocol: as §3, §4, §5

[2] = system: 40 RTKs (receptor tyrosine kinases); experiment: Phospho-RTK array evaluation (off-target activity); format: cell-based, mouse; details: primary hippocampal neurons (DIV6)
Protocol: Comprehensive study of the phosphorylated tyrosine kinase receptor was conducted using a phospho-RTK array in accordance with the manufacturer’s protocol (Proteome Profiler mouse Phospho-RTK Array Kit, ARY014, R&D Systems). The phosphorylation level was evaluated by pixel density and quantified by Image J Software.

c-fos = experiment: qRT-PCR of c-fos mRNA in primary cortical neurons; format: cell-based; details: 1 nM, one hour, primary cortical neurons (DIV6); p<0.01
Protocol: (§6) The total RNA was quantitatively and qualitatively verified by a NanoDrop spectrometer (Thermo Fisher Scientific) and electrophoresis in a formaldehyde gel.
(§7) Next, 500 ng of the total RNA was reverse-transcribed using Super Script II (Thermo Fisher Scientific). Quantitative PCR was carried out using a SYBR Green real-time PCR system by the previously reported method (Akashi, M.; Takumi, T., The orphan nuclear receptor RORalpha regulates circadian transcription of the mammalian core-clock Bmal1. Nat Struct Mol Biol 2005, 12 (5), 441-8.). A Gapdh gene was used as an internal control. The following primer sequences were respectively used: Gapdh (Forward: 5′-[…]-3′ and reverse: 5′-[…]-3′) (represented by SEQ ID NOS: 14 and 15, respectively), c-fos (Forward: 5′-[…]-3′ and reverse: 5′-[…]-3′) (represented by SEQ ID NOS: 16 and 17, respectively), and Arc (Forward: 5′-[…]-3′ and reverse: 5′-[…]-3′)(represented by SEQ ID NOS: 18 and 19, respectively).

Arc = experiment: qRT-PCR of Arc mRNA in primary cortical neurons; format: cell-based; details: 1 nM, one hour, primary cortical neurons (DIV6); p<0.01
Protocol: as §6, §7

[3] = system: primary hippocampal neurons; experiment: Immunocytochemistry for evaluation of axonal outgrowth; format: cell-based; details: for axonal outgrowth: p<0.01 vs DMSO
Protocol: The cells were washed twice with 0.1 M phosphate-buffered physiological saline (PBS) and immobilized for 15 minutes with 2% paraformaldehyde (PFA)/4% sucrose (in 0.1 M PBS). After washing three times with PBS, the cells were subjected to permeabilization for 3 minutes with PBS (P\BST) containing 0.2% Triton-X and incubated for one hour with a blocking solution (PBST containing 5% normal goat serum) to prevent non-specific binding. Then, the cells were incubated overnight at 4° C. with a primary antibody diluted with the blocking solution (rabbit anti-Tau polyclonal antibody, 1:1,000 dilution; cat#ab64193 (abcam); mouse anti-MAP2 monoclonal antibody, 1:1,000 dilution, M4403 (Sigma)). After washing of the cells with PBST for 10 minutes was performed four times, they were incubated at room temperature for 2 hours with a fluorescently-labeled secondary antibody diluted with the block solution (Alexa Fluor 488-labeled goat anti-mouse IgG antibody, 1:1,000 dilution, A-11029; Alexa Fluor 568-labeled goat anti-rabbit IgG antibody, 1:1,000 dilution, A-21069 (Thermo Fisher Scientific)).
Next, after washing of the cells with PBST for 10 minutes was performed four times, they were mounted with […] containing DAPI (H-1200 (Vector Laboratories)) and an image was obtained using a Virtual Slide microscope system (VS120 (Olympus)) having a x20 objective lens. The images were analyzed using a neuron J plugin in Image J software and the neurite length tracing and quantification were performed (Meijering, E.; Jacob, M.; Sarria, J. C.; Steiner, P.; Hirling, H.; Unser, M., Design and validation of a tool for neurite tracing and analysis in fluorescence microscopy images. Cytometry A 2004, 58 (2), 167-76.).

[4] = target: extracellular domain of hTrkA (Homo sapiens, UniProt P04629); experiment: SPR binding kinetics (Biacore T200), hTrkA; parameters: the extracellular domain of hTrkA, hTrkC, and hTrkB; details: 1:1 binding model
Protocol: as §1, §2

[5] = target: T3, extracellular domain of hTrkB (Homo sapiens, UniProt Q16620); experiment: SPR binding kinetics (Biacore T200), hTrkB; details: Monomer (cyclic peptide), 1:1 binding model, 1 to 1000 nM, read-out: binding affinity KD, TrkB
T3 construct: the extracellular domain of hTrkA, hTrkC, and hTrkB
Protocol: as §1, §2

TrkB = TrkB (Homo sapiens, UniProt Q16620); details: Non-Patent Document 3; cited from earlier work
Sequence of TrkB (Q16620 32-822, species assumed): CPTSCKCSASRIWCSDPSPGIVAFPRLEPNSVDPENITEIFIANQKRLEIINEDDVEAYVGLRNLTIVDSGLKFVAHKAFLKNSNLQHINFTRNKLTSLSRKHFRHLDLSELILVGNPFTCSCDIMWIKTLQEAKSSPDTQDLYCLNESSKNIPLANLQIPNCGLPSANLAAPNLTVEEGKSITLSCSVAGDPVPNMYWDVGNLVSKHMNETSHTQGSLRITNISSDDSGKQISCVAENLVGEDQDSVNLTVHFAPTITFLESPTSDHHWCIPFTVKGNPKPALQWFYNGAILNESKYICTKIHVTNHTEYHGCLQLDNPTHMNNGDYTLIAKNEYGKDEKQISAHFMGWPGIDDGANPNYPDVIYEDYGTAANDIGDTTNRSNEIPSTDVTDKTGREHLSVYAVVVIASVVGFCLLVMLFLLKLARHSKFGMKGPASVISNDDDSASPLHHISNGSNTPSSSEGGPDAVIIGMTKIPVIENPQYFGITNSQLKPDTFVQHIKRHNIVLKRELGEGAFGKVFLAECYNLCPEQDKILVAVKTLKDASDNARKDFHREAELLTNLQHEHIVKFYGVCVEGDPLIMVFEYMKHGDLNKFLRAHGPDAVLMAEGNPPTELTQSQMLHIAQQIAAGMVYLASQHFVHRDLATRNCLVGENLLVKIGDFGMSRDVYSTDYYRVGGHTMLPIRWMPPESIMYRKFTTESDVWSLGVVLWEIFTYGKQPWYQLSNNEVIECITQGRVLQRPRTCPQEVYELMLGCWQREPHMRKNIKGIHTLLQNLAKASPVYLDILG

CC(C)C[C@@H]1NC(=O)[C@H](Cc2ccc(O)cc2)NC(=O)CSC[C@@H](C(=O)NCC(=O)N[C@@H](CO)C(=O)NCC(=O)N[C@@H](CO)C(=O)NCC(=O)N[C@@H](CO)C(=O)NCCOCCOCCOCCOCCOCCOCC(=O)NC[C@H](NC(=O)COCCOCCOCCOCCOCCOCCNC(=O)[C@H](CO)NC(=O)CNC(=O)[C@H](CO)NC(=O)CNC(=O)[C@H](CO)NC(=O)CNC(=O)[C@@H]2CSCC(=O)N[C@@H](Cc3ccc(O)cc3)C(=O)N[C@@H](CC(C)C)C(=O)N[C@@H](CCCNC(=N)N)C(=O)N3CCC[C@H]3C(=O)N[C@@H](CCCNC(=N)N)C(=O)N[C@@H](Cc3ccc(O)cc3)C(=O)N[C@@H](CCCCN)C(=O)N[C@@H](Cc3ccccc3)C(=O)N[C@@H](Cc3c[nH]c4ccccc34)C(=O)N2)C(N)=O)NC(=O)[C@H](Cc2c[nH]c3ccccc23)NC(=O)[C@H](Cc2ccccc2)NC(=O)[C@H](CCCCN)NC(=O)[C@H](Cc2ccc(O)cc2)NC(=O)[C@H](CCCNC(=N)N)NC(=O)[C@@H]2CCCN2C(=O)[C@H](CCCNC(=N)N)NC1=O [DiTrbL3] (I: {CH2CO}-YLRPRYKFWCGSGSGS[NH(CH2CH2O)6CH2CO][Dap]-NH2 / II: {CH2CO}-YLRPRYKFWCGSGSGS[NH(CH2CH2O)6CH2CO]; amide I:18-II:C; thioether I:N-I:10, II:N-II:10)
binding affinity KD, TrkC ([1]; Homodimer (peptide complex)): N.B.
TrkB phosphorylation, dose titration (mouse TrkB; 0.2 nM, p<0.01 vs DMSO): obviously induces TrkB phosphorylation
phosphorylation of TrkB (mouse TrkB; 1 nM, 15 minutes, primary mouse hippocampal neurons (DIV6)): induced phosphorylation of TrkB
phosphorylation of Akt (Akt): drastically activated phosphorylation; also recorded: a significant difference is present in induction between DMSO and DiTrbL3
phosphorylation of Erk½ (Erk½): drastically activated phosphorylation; also recorded: a significant difference is present in induction between DMSO and DiTrbL3
RTK phosphorylation in phospho-RTK array ([2]; 1 nM, 40 RTKs): phosphorylated only TrkB
mRNA expression of c-fos (c-fos): significantly increased
mRNA expression of Arc (Arc): significantly increased
axonal outgrowth ([3]; 10 nM, DIV0 to 3): significantly reinforced the axonal outgrowth
axonal outgrowth ([3]; 100 nM, DIV0 to 3): significantly reinforced the axonal outgrowth
axonal length of primary neurons ([3]; treated for 3 days (DIV0 to 3)): elongated
binding affinity KD, TrkA ([4]; Homodimer (peptide complex)): N.B.

CC(C)C[C@@H]1NC(=O)[C@H](CCCNC(=N)N)NC(=O)[C@H](Cc2ccccc2)NC(=O)[C@H](CCCNC(=N)N)NC(=O)[C@@H]2CCCN2C(=O)[C@H]([C@@H](C)O)NC(=O)[C@H](CCC(N)=O)NC(=O)[C@H](Cc2c[nH]c3ccccc23)NC(=O)[C@H](Cc2ccccc2)NC(=O)[C@H](CCCNC(=N)N)NC(=O)[C@H](Cc2ccc(O)cc2)NC(=O)CSC[C@@H](C(=O)NCC(=O)N[C@@H](CO)C(=O)NCC(=O)N[C@@H](CO)C(=O)NCC(=O)N[C@@H](CO)C(N)=O)NC1=O [TrbL2] ({CH2CO}-YRFWQTPRFRLCGSGSGS-NH2; thioether N-12)
Kd [5]: 0.07 µM
binding affinity KD, TrkC ([1]; Monomer (cyclic peptide), 1 to 1000 nM): N.B.
Kd ([4]; Monomer (cyclic peptide), 1 to 1000 nM, read-out: binding affinity KD, TrkA): 0.1 µM

BDNF: brain-derived neurotrophic factor, natural protein agonist of TrkB, positive control
phosphorylation of Trk (mouse TrkB; 0.1 nM, 15 minutes, primary mouse hippocampal neurons (DIV6)): induced phosphorylation of Trk
RTK phosphorylation in phospho-RTK array ([2]; 0.1 nM, incubation for one hour as printed): caused phosphorylation of TrkB
axonal length of primary neurons ([3]; 2 nM BDNF, DIV0 to 3): elongated
affinity for TrkB relative to that of p75 (TrkB): at least 10 times
